Activity calls are given as the source filed them. No rule for the calls is given here.
Test system: CCRIS mutagenicity, Ames/micronucleus/aberration tests
Test: CCRIS mutagenicity studies
[1] = Test System: AMES SALMONELLA TYPHIMURIUM, Strain/Indicator: TA1535, Metabolic Activation: NONE, Method: STANDARD PLATE

For `Nc1ncn[nH]1`, the mutagenic call (Test System: AMES SALMONELLA TYPHIMURIUM, Strain/Indicator: TA97, Metabolic Activation: HAMSTER, LIVER, S-9, AROCLOR 1254 (10 OR 30%), Method: PREINCUBATION) was “inactive; negative”, the mutagenic call (Test System: AMES SALMONELLA TYPHIMURIUM, Strain/Indicator: TA97, Metabolic Activation: NONE, Method: PREINCUBATION) was “inactive; negative” and the mutagenic call (Test System: AMES SALMONELLA TYPHIMURIUM, Strain/Indicator: TA97, Metabolic Activation: RAT, LIVER, S-9, AROCLOR 1254 (10 OR 30%), Method: PREINCUBATION) was “inactive; negative”. For the same molecule, the mutagenic call (Test System: AMES SALMONELLA TYPHIMURIUM, Strain/Indicator: TA98, Metabolic Activation: HAMSTER, LIVER, S-9, AROCLOR 1254 (10 OR 30%), Method: PREINCUBATION) was “inactive; negative”, the mutagenic call (Test System: AMES SALMONELLA TYPHIMURIUM, Strain/Indicator: TA98, Metabolic Activation: NONE, Method: PREINCUBATION) was “inactive; negative” and the mutagenic call (Test System: AMES SALMONELLA TYPHIMURIUM, Strain/Indicator: TA98, Metabolic Activation: PROSTAGLANDIN H SYNTHASE, Method: PREINCUBATION) was “inactive; negative”. The mutagenic call (Test System: AMES SALMONELLA TYPHIMURIUM, Strain/Indicator: TA98, Metabolic Activation: RAT, LIVER, S-9, AROCLOR 1254 (10 OR 30%), Method: PREINCUBATION) was “inactive; negative”, the mutagenic call (Test System: AMES SALMONELLA TYPHIMURIUM, Strain/Indicator: TA100, Metabolic Activation: HAMSTER, LIVER, S-9, AROCLOR 1254 (10 OR 30%), Method: PREINCUBATION) was “inactive; negative” and the mutagenic call (Test System: AMES SALMONELLA TYPHIMURIUM, Strain/Indicator: TA100, Metabolic Activation: NONE, Method: PREINCUBATION) was “inactive; negative”. For the same molecule, the mutagenic call (Test System: AMES SALMONELLA TYPHIMURIUM, Strain/Indicator: TA100, Metabolic Activation: RAT, LIVER, S-9, AROCLOR 1254 (10 OR 30%), Method: PREINCUBATION) was “inactive; negative”, the mutagenic call (Test System: AMES SALMONELLA TYPHIMURIUM, Strain/Indicator: TA1535, Metabolic Activation: HAMSTER, LIVER, S-9, AROCLOR 1254 (10 OR 30%), Method: PREINCUBATION) was “inactive; negative” and the mutagenic call (Test System: AMES SALMONELLA TYPHIMURIUM, Strain/Indicator: TA1535, Metabolic Activation: NONE, Method: PREINCUBATION) was “inactive; negative”. For the same molecule, the mutagenic call (Test System: AMES SALMONELLA TYPHIMURIUM, Strain/Indicator: TA1535, Metabolic Activation: RAT, LIVER, S-9, AROCLOR 1254 (5 OR 10%), Method: PREINCUBATION) was “inactive; negative”, the mutagenic call (Test System: AMES SALMONELLA TYPHIMURIUM, Strain/Indicator: TA1535, Metabolic Activation: RAT, LIVER, S-9, AROCLOR 1254 (30%), Method: PREINCUBATION) was “inactive; negative” and the mutagenic call (Test System: E. COLI, Strain/Indicator: WP2 UVRA, Metabolic Activation: HAMSTER, LIVER, S-9, AROCLOR 1254, Method: STANDARD PLATE) was “inactive; negative”. For the same molecule, the mutagenic call (Test System: E. COLI, Strain/Indicator: WP2 UVRA, Metabolic Activation: HAMSTER, LIVER, S-9, Method: STANDARD PLATE) was “inactive; negative”, the mutagenic call (Test System: E. COLI, Strain/Indicator: WP2 UVRA, Metabolic Activation: MOUSE, LIVER, S-9, AROCLOR 1254, Method: STANDARD PLATE) was “inactive; negative” and the mutagenic call (Test System: E. COLI, Strain/Indicator: WP2 UVRA, Metabolic Activation: MOUSE, LIVER, S-9, Method: STANDARD PLATE) was “inactive; negative”. For the same molecule, the mutagenic call (Test System: E. COLI, Strain/Indicator: WP2 UVRA, Metabolic Activation: NONE, Method: STANDARD PLATE) was “inactive; negative”, the mutagenic call (Test System: E. COLI, Strain/Indicator: WP2 UVRA, Metabolic Activation: RAT, LIVER, S-9, AROCLOR 1254, Method: STANDARD PLATE) was “inactive; negative” and the mutagenic call (Test System: E. COLI, Strain/Indicator: WP2 UVRA, Metabolic Activation: RAT, LIVER, S-9, Method: STANDARD PLATE) was “inactive; negative”. For the same molecule, the mutagenic call (Test System: MOUSE LYMPHOMA, Strain/Indicator: L5178Y (TK+/TK-), Metabolic Activation: NONE, Method: SUSPENSION/PLATE) was “inactive; negative”, the mutagenic call (Test System: MOUSE LYMPHOMA, Strain/Indicator: L5178Y (TK+/TK-), Metabolic Activation: RAT, LIVER, S-9, AROCLOR 1254, Method: SUSPENSION/PLATE) was “inactive; negative” and the mutagenic call (Test System: MOUSE LYMPHOMA, Strain/Indicator: L5178Y (TK+/TK-), Metabolic Activation: RAT, LIVER, S-9, Method: SUSPENSION/PLATE) was “inactive; negative”.
With `CCCCCCOCCOCCO` the mutagenic call (Test System: AMES SALMONELLA TYPHIMURIUM, Strain/Indicator: TA98, Metabolic Activation: NONE, Method: STANDARD PLATE) was “inactive; negative”, the mutagenic call (Test System: AMES SALMONELLA TYPHIMURIUM, Strain/Indicator: TA98, Metabolic Activation: RAT LIVER S-9, AROCLOR 1254, Method: STANDARD PLATE) was “inactive; negative” and the mutagenic call (Test System: AMES SALMONELLA TYPHIMURIUM, Strain/Indicator: TA100, Metabolic Activation: NONE, Method: STANDARD PLATE) was “inactive; negative”. The mutagenic call (Test System: AMES SALMONELLA TYPHIMURIUM, Strain/Indicator: TA100, Metabolic Activation: RAT LIVER S-9, AROCLOR 1254, Method: STANDARD PLATE) was “inactive; negative”, the mutagenic call [1] was “inactive; negative” and the mutagenic call (Test System: AMES SALMONELLA TYPHIMURIUM, Strain/Indicator: TA1535, Metabolic Activation: RAT LIVER S-9, AROCLOR 1254, Method: STANDARD PLATE) was “inactive; negative”. For the same molecule, the mutagenic call (Test System: AMES SALMONELLA TYPHIMURIUM, Strain/Indicator: TA1537, Metabolic Activation: NONE, Method: STANDARD PLATE) was “inactive; negative”, the mutagenic call (Test System: AMES SALMONELLA TYPHIMURIUM, Strain/Indicator: TA1537, Metabolic Activation: RAT LIVER S-9, AROCLOR 1254, Method: STANDARD PLATE) was “inactive; negative” and the mutagenic call (Test System: AMES SALMONELLA TYPHIMURIUM, Strain/Indicator: TA1538, Metabolic Activation: NONE, Method: STANDARD PLATE) was “inactive; negative”. The mutagenic call (Test System: AMES SALMONELLA TYPHIMURIUM, Strain/Indicator: TA1538, Metabolic Activation: RAT LIVER S-9, AROCLOR 1254, Method: STANDARD PLATE) was “inactive; negative” and the mutagenic call (Test System: CHINESE HAMSTER OVARY CELLS, Strain/Indicator: CHO-K1-BH4 CELLS (HPRT)/6-THIOGUANINE, Metabolic Activation: RAT LIVER S-9, AROCLOR 1254, Method: PREINCUBATION) was “active; positive”.
In the case of `COc1cccc2c1ccc1c(C(=O)O)cc3c(c12)OCO3`, the mutagenic call (Test System: AMES SALMONELLA TYPHIMURIUM, Strain/Indicator: D3052, Metabolic Activation: NONE, Method: STANDARD PLATE) is reported as “inactive; negative”, the mutagenic call (Test System: AMES SALMONELLA TYPHIMURIUM, Strain/Indicator: D3052, Metabolic Activation: RAT, LIVER, S-9, PHENOBARBITAL, Method: STANDARD PLATE) is reported as “inactive; negative” and the mutagenic call (Test System: AMES SALMONELLA TYPHIMURIUM, Strain/Indicator: G46, Metabolic Activation: NONE, Method: STANDARD PLATE) is reported as “inactive; negative”. The mutagenic call (Test System: AMES SALMONELLA TYPHIMURIUM, Strain/Indicator: G46, Metabolic Activation: RAT, LIVER, S-9, PHENOBARBITAL, Method: STANDARD PLATE) was “inactive; negative”, the mutagenic call (Test System: AMES SALMONELLA TYPHIMURIUM, Strain/Indicator: TA98(NR), Metabolic Activation: NONE, Method: STANDARD PLATE) was “active; positive” and the mutagenic call (Test System: AMES SALMONELLA TYPHIMURIUM, Strain/Indicator: TA98, Metabolic Activation: RAT, LIVER, S-9, PHENOBARBITAL, Method: STANDARD PLATE) was “inactive; negative”. For the same molecule, the mutagenic call (Test System: AMES SALMONELLA TYPHIMURIUM, Strain/Indicator: TA100(NR), Metabolic Activation: NONE, Method: STANDARD PLATE) was “active; positive”, the mutagenic call (Test System: AMES SALMONELLA TYPHIMURIUM, Strain/Indicator: TA100, Metabolic Activation: RAT, LIVER, S-9, PHENOBARBITAL, Method: STANDARD PLATE) was “inactive; negative” and the mutagenic call (Test System: AMES SALMONELLA TYPHIMURIUM, Strain/Indicator: TA102, Metabolic Activation: NONE, Method: STANDARD PLATE) was “active; positive”. The mutagenic call [1] was “inactive; negative”, the mutagenic call (Test System: AMES SALMONELLA TYPHIMURIUM, Strain/Indicator: TA1535, Metabolic Activation: RAT, LIVER, S-9, PHENOBARBITAL, Method: STANDARD PLATE) was “inactive; negative” and the mutagenic call (Test System: AMES SALMONELLA TYPHIMURIUM, Strain/Indicator: TA1978, Metabolic Activation: NONE, Method: STANDARD PLATE) was “inactive; negative”. The mutagenic call (Test System: AMES SALMONELLA TYPHIMURIUM, Strain/Indicator: TA1978, Metabolic Activation: RAT, LIVER, S-9, PHENOBARBITAL, Method: STANDARD PLATE) was “inactive; negative”, the mutagenic call (Test System: AMES SALMONELLA TYPHIMURIUM, Strain/Indicator: TM677/8-AZAGUANINE, Metabolic Activation: NONE, Method: SUSPENSION/PLATE) was “active; positive” and the mutagenic call (Test System: AMES SALMONELLA TYPHIMURIUM, Strain/Indicator: YG1021, Metabolic Activation: NONE, Method: STANDARD PLATE) was “inactive; negative”. The mutagenic call (Test System: AMES SALMONELLA TYPHIMURIUM, Strain/Indicator: YG1026, Metabolic Activation: NONE, Method: STANDARD PLATE) was “inactive; negative” and the mutagenic call (Test System: CHINESE HAMSTER OVARY, Strain/Indicator: CHO-K1-BH4 (HGPRT), Metabolic Activation: NONE) was “active; positive”.
`Oc1cc(Cl)cc(Cl)c1O` was tested, and the mutagenic call (Test System: CHINESE HAMSTER V-79, Strain/Indicator: V-79/6-THIOGUANINE, Metabolic Activation: CELL MEDIATED, Method: STANDARD PLATE) was “inactive; negative” and the mutagenic call (Test System: CHINESE HAMSTER V-79, Strain/Indicator: V-79/6-THIOGUANINE, Metabolic Activation: NONE, Method: STANDARD PLATE) was “inactive; negative”.
With `CSCCCCN=C=S` the mutagenic call (End Point: IN VITRO MICRONUCLEUS, Test System: HUMAN T-LYMPHOCYTES, Metabolic Activation: NONE) was “inactive; negative”.
